Experimental data published in patent publication US20140120083A1, “TREATMENT OF CANCERS USING PI3 KINASE ISOFORM MODULATORS” (INFINITY PHARMACEUTICALS, INC., priority 2012, published 2014).
“And” between values parts separate entries of the source, which are not always exact repeats. Equal values may be shown once. Read-outs that look alike come from different tables or passages of the source. Marks after values point to notes of the source that are not given here.

What was measured:
[1] = Plasma protein binding, human; assay type: in vitro ADME; settings: 100 μM (41700 ng/mL)
Source text: […]. […] […].

[2] = Pharmacokinetics, dog; assay type: in vivo, Beagle dogs; settings: for Foral: AUC0-last; for clearance / Vd / AUC(0-inf) / AUC(0-t) / Cmax / half-life / Tmax: beagle, in vivo; for Vd: read-out: Vss; for AUC(0-t): read-out: AUC0-last (AUC0-24)
[3] = Phase 1 study in advanced hematologic malignancies, safety
[4] = po, 5 mg/kg, 5 mg/kg (study with 0.5 mg/kg IV)
[5] = po, 5 mg/kg, 5 mg/kg (study with 1 mg/kg IV)

Question: With `C[C@H](Nc1ncnc2[nH]cnc12)c1cc2cccc(Cl)c2c(=O)n1-c1ccccc1` [Compound 292] as the molecule, how does the protein bound [1] read?
Answer: The protein bound was 85.9%.

Question: What about the Foral ([2]; PO, 5 mg/kg, 0.5 mg/kg IV dose as reference) of the same molecule?
Answer: Its Foral is 97^g,i %.

Question: What about the Foral ([2]; PO, 5 mg/kg, 1 mg/kg IV dose as reference) of the same molecule?
Answer: The Foral was 40% and 40^h,i %.

Question: What about the clearance ([2]; IV, 0.5 mg/kg) of the same molecule?
Answer: Its clearance is 0.85 mL/min/kg.

Question: And the Vd ([2]; IV, 0.5 mg/kg)?
Answer: Its Vd is 0.13 L/kg.

Question: And the clearance ([2]; IV, 1 mg/kg)?
Answer: Its clearance is 3.23 mL/min/kg.

Question: And the Vd ([2]; IV, 1 mg/kg)?
Answer: Its Vd is 0.493 L/kg.

Question: What about the AUC(0-inf) ([2]; iv, 0.5 mg/kg) of the same molecule?
Answer: The AUC(0-inf) was 11900 ng·h/mL.

Question: What about the AUC(0-t) ([2]; iv, 0.5 mg/kg, IV, 0.5 mg/kg) of the same molecule?
Answer: The AUC(0-t) was 11700 ng·h/mL.

Question: And the Cmax ([2]; iv, 0.5 mg/kg, IV, 0.5 mg/kg, read-out: Cmax (reported value is C0))?
Answer: The Cmax was 4410 ng/mL.

Question: And the half-life ([2]; iv, 0.5 mg/kg, IV, 0.5 mg/kg, read-out: T1/2 (converted))?
Answer: The half-life was 120 min.

Question: What about the AUC(0-inf) ([2]; iv, 1 mg/kg) of the same molecule?
Answer: The AUC(0-inf) was 6270 ng·h/mL.

Question: What about the AUC(0-t) ([2]; iv, 1 mg/kg, IV, 1 mg/kg) of the same molecule?
Answer: Its AUC(0-t) is 5880 ng·h/mL.

Question: What about the Cmax ([2]; iv, 1 mg/kg, IV, 1 mg/kg, read-out: Cmax (reported value is C0)) of the same molecule?
Answer: The Cmax was 1800 ng/mL.

Question: And the half-life ([2]; iv, 1 mg/kg, IV, 1 mg/kg, read-out: T1/2 (converted))?
Answer: The half-life was 110 min.

Question: And the AUC(0-inf) [2, 4]?
Answer: The AUC(0-inf) was 107000 ng·h/mL.

Question: And the Tmax [2, 4]?
Answer: Its Tmax is 3 h.

Question: What about the AUC(0-inf) [2, 5] of the same molecule?
Answer: Its AUC(0-inf) is 13800 ng·h/mL.

Question: What about the Tmax [2, 5] of the same molecule?
Answer: The Tmax was 1.33 h.

Question: What about the AUC(0-t) ([2]; po, 5 mg/kg, PO, 5 mg/kg (study with 0.5 mg/kg IV)) of the same molecule?
Answer: The AUC(0-t) was 105000 ng·h/mL.

Question: What about the Cmax ([2]; po, 5 mg/kg, PO, 5 mg/kg (study with 0.5 mg/kg IV), read-out: Cmax) of the same molecule?
Answer: Its Cmax is 9600 ng/mL.

Question: What about the half-life ([2]; po, 5 mg/kg, PO, 5 mg/kg (study with 0.5 mg/kg IV), read-out: T1/2 (converted)) of the same molecule?
Answer: The half-life was 234 min.

Question: What about the AUC(0-t) ([2]; po, 5 mg/kg, PO, 5 mg/kg (study with 1 mg/kg IV)) of the same molecule?
Answer: The AUC(0-t) was 10900 ng·h/mL.

Question: And the Cmax ([2]; po, 5 mg/kg, PO, 5 mg/kg (study with 1 mg/kg IV), read-out: Cmax)?
Answer: Its Cmax is 2370 ng/mL.

Question: And the half-life ([2]; po, 5 mg/kg, PO, 5 mg/kg (study with 1 mg/kg IV), read-out: T1/2 (converted))?
Answer: Its half-life is 189 min.

Question: What about the half-life ([2]; read-out: half-life (converted)) of the same molecule?
Answer: The half-life was 120 min.

Question: What about the dose limiting toxicity ([3]; 15 mg BID dose cohort) of the same molecule?
Answer: The dose limiting toxicity was “Grade 4 neutropenia”.

Question: And the “AE Leading to Discontinuation” value ([3]; 25 mg BID (n = 34))?
Answer: The value was 2 n.

Question: What about the “Any AE” value ([3]; 25 mg BID (n = 34)) of the same molecule?
Answer: Its value is 27 n.

Question: What about the “Any AE Grade 3” value ([3]; 25 mg BID (n = 34)) of the same molecule?
Answer: The value was 7 n.

Question: And the “Any AE Grade 4” value ([3]; 25 mg BID (n = 34))?
Answer: Its value is 5 n.

Question: What about the “Deaths on Study” value ([3]; 25 mg BID (n = 34)) of the same molecule?
Answer: Its value is 0 n.

Question: What about the “Dose Reduced (New Grade 3/4 ALT)” value ([3]; 25 mg BID (n = 34)) of the same molecule?
Answer: The value was 3 n.

Question: And the “Dose Reduced (New Grade 3/4 ANC)” value ([3]; 25 mg BID (n = 34))?
Answer: Its value is 2 n.

Question: What about the “New Grade 3 ALT” value ([3]; 25 mg BID (n = 34)) of the same molecule?
Answer: The value was 3 n.

Question: And the “New Grade 3 ANC” value ([3]; 25 mg BID (n = 34))?
Answer: Its value is 2 n.

Question: What about the “New Grade 4 ANC” value ([3]; 25 mg BID (n = 34)) of the same molecule?
Answer: Its value is 4 n.

Question: And the “Related AE” value ([3]; 25 mg BID (n = 34))?
Answer: The value was 18 n.

Question: And the “Related Grade 3 AE” value ([3]; 25 mg BID (n = 34))?
Answer: The value was 4/4 n.

Question: And the “Related Grade 4 AE” value ([3]; 25 mg BID (n = 34))?
Answer: Its value is 4/4 n.

Question: And the SAE ([3]; 25 mg BID (n = 34))?
Answer: Its SAE is 4 n.

Question: And the dose limiting toxicity ([3]; 75 mg BID)?
Answer: The dose limiting toxicity was “Grade 3 cellulitis”.

Question: What about the “new Grade>3 neutropenia, n (%)” value ([3]; 20 patients, 8-50 mg BID) of the same molecule?
Answer: Its value is 6 (30%).

Question: And the “new Grade>3 thrombocytopenia, n (%)” value ([3]; 20 patients, 8-50 mg BID)?
Answer: Its value is 1 (5%).

Question: And the “patients with AEs Grade>3” value ([3]; 20 patients, 8-50 mg BID)?
Answer: The value was 7 (35%).

Question: And the “patients with adverse events” value ([3]; 20 patients, 8-50 mg BID)?
Answer: The value was 13 (65%).

Question: What about the “patients with treatment-related AEs” value ([3]; 20 patients, 8-50 mg BID) of the same molecule?
Answer: The value was 11 patients.

Question: And the “patients with treatment-related AEs Grade>3” value ([3]; 20 patients, 8-50 mg BID)?
Answer: Its value is 5 patients.

Question: And the “Grade 3 ALT/AST elevations, n (%)” value ([3]; 20 patients, 8-50 mg BID, MM patient)?
Answer: Its value is 1 (5%).

Question: What about the “AE Leading to Discontinuation” value ([3]; Safety Population (n = 55)) of the same molecule?
Answer: The value was 3 n.

Question: And the “Any AE” value ([3]; Safety Population (n = 55))?
Answer: Its value is 46 n.

Question: And the “Any AE Grade 3” value ([3]; Safety Population (n = 55))?
Answer: The value was 18 n.

Question: What about the “Any AE Grade 4” value ([3]; Safety Population (n = 55)) of the same molecule?
Answer: The value was 8 n.

Question: And the “Deaths on Study” value ([3]; Safety Population (n = 55))?
Answer: The value was 3 n.

Question: What about the “Dose Reduced (New Grade 3/4 ALT)” value ([3]; Safety Population (n = 55)) of the same molecule?
Answer: The value was 6 n.

Question: What about the “Dose Reduced (New Grade 3/4 ANC)” value ([3]; Safety Population (n = 55)) of the same molecule?
Answer: The value was 5 n.

Question: What about the “New Grade 3 ALT” value ([3]; Safety Population (n = 55)) of the same molecule?
Answer: Its value is 5 n.

Question: And the “New Grade 3 ANC” value ([3]; Safety Population (n = 55))?
Answer: The value was 10 n.

Question: What about the “New Grade 4 ANC” value ([3]; Safety Population (n = 55)) of the same molecule?
Answer: Its value is 5 n.

Question: And the “Related AE” value ([3]; Safety Population (n = 55))?
Answer: The value was 31 n.

Question: What about the “Related Grade 3 AE” value ([3]; Safety Population (n = 55)) of the same molecule?
Answer: Its value is 14 n.

Question: What about the “Related Grade 4 AE” value ([3]; Safety Population (n = 55)) of the same molecule?
Answer: Its value is 6 n.
